Data reported in publication PMC11555678, “Improved Broad Spectrum Antifungal Drug Synergies with Cryptomycin, a Cdc50-Inspired Antifungal Peptide” (ACS Infectious Diseases, 2024).
≈ marks a conversion by molar mass, not a printed value. Square brackets hold non-standard residues; d marks the D form. Peptide text beside a SMILES is read from it. * marks the point of attachment. Myristoyl = CCCCCCCCCCCCCC(=O)*; Orn = NCCC[C@H](N)C(=O)O

Legend:
Test in all cases: microbe, parasite or virus in culture
C. albicans SC5413 = assay type: cell-based, Candida albicans
How it was run: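 CLSI M27 yeast microdilution; RPMI1640; 2-fold serial dilution of drug (DMSO stock); inoculum 5000 cfu/mL from washed overnight YPD cultures; 37 °C, 2 d.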

C. auris B11245 = assay type: cell-based, Candida auris; conditions: B11245, 48 h
Procedure: (§1) All microdilution assays with fungi were carried out in accordance with CLSI protocols from M27 for yeasts and M38 for filamentous fungi, respectively, unless otherwise specified.[64],[65] Briefly, 96-well plates were charged with RPMI1640 media, with operating volume in the first column, 200 μL, and half operating volume, 100 μL, in the remaining wells. Drug stock solution in DMSO was aliquoted into the first well in each row. Half of the volume in the dosed well was serially diluted 2-fold until column 11. Column 11 was used as the negative growth control, and column 12 was used as the positive growth control. ON yeast cultures in YPD were washed twice in DD-H2O, resuspended in PBS, and adjusted to 5000 cfu/mL in RPMI. The 96-well plate was inoculated with 100 μL aliquots of cell suspension per well. Plates were incubated at 37 °C for 2 days.

A. fumigatus AF293 = assay type: cell-based, Aspergillus fumigatus; conditions: AF293, 48 h
Procedure: as §1

Cn Crm1-oe = assay type: cell-based, Cryptococcus neoformans; conditions: YPD + 0 mM Ca2+, 37 °C, 48 h
Procedure: (§2) Previous studies have shown that modifying microbiological media with salts such as CaCl2 can have a drastic effect on the growth of fungi and their responses to antifungals.[19],[35] In the case of CaCl2, the divalent cation, Ca^2+, is involved in fungal cell stress response. To understand how the peptide activity may involve calcium and stress response, the MICs of KKOO, KKOO-NH2, FLC, and CAS were assessed as a function of the calcium concentration in liquid YPD media. It was observed that calcium enrichment completely desensitized the wild-type strain to KKOO and KKOO-NH2, Tables 7 and 8, respectively. Effects of calcium enrichment on the susceptibility of Cryptococcus to CAS similar to literature values were recorded, Supporting Information, Table S7.[35]
as §1

Cn apt1Δ = assay type: cell-based, Cryptococcus neoformans; conditions: for MIC: 37 °C, 48 h
Procedure: as §2, §1

Cn crm1Δ = assay type: cell-based, Cryptococcus neoformans; conditions: YPD + 0 mM Ca2+, 37 °C, 48 h
Procedure: as §2, §1

CCCCCCCCCCCCCC(=O)N[C@@H](Cc1c[nH]c2ccccc12)C(=O)NCC(=O)NCC(=O)N[C@H](C(=O)N[C@@H](CCCN)C(=O)N[C@@H](CCCN)C(=O)N[C@@H](CC(N)=O)C(=O)N[C@@H](Cc1ccc(O)cc1)C(=O)N[C@@H](C)C(N)=O)[C@@H](C)CC [KKOO-NH2] (Myristoyl-WGGI[Orn][Orn]NYA-NH2)
MIC (C. albicans SC5413; SC5413, 48 h): 16 µg/mL (≈ 13.1 µM) | MIC (SAR screen peptides) (C. albicans SC5413; Table S1, unit and conditions not given (MICs elsewhere in μg/mL)): 16 | MIC (C. auris B11245): 16 µg/mL (≈ 13.1 µM) | MIC (A. fumigatus AF293): 32 µg/mL (≈ 26.3 µM) | MIC (Cn Crm1-oe): 4 µg/mL | MIC (Cn apt1Δ; YPD + 0 mM Ca2+): 4 µg/mL | increase of MIC (Cn apt1Δ; YPD +0 to +20 mM CaCl2): 32 fold | MIC (Cn apt1Δ; YPD + 2.5 mM Ca2+): 16 µg/mL | MIC (Cn apt1Δ; YPD + 5 mM Ca2+): 64 µg/mL | MIC (Cn apt1Δ; YPD + 10 mM Ca2+): 64 µg/mL | MIC (Cn crm1Δ): 4 µg/mL
